Assay results published in patent US11053248B2, “[1,2,4]triazolo[1,5-a]pyrimidine compounds as PDE2 inhibitors” (Janssen Pharmaceutica NV, priority 2016, dated 2021).
“And” between values parts separate entries of the source, which are not always exact repeats. Equal values may be shown once. Read-outs that look alike come from different tables or passages of the source.

How the values were obtained:
hPDE2A = target: T1, hPDE2A (Homo sapiens, UniProt O00408); assay: In vitro assay PDE2A (SPA, 3H-cGMP); type: biochemical; settings: for Emax: read-out: hPDE2A Emax
T1 construct: made in house; host or cells: Sf9 insect cells (baculovirus)
Experimental: Human recombinant PDE2A (hPDE2A) was expressed in Sf9 cells using a recombinant rPDE10A baculovirus construct. Cells were harvested after 48 h of infection and the hPDE2A protein was purified by metal chelate chromatography on Ni-sepharose 6FF. Tested compounds were dissolved and diluted in 100% DMSO to a concentration 100 fold of the final concentration in the assay. Compound dilutions (0.4 μl) were added in 384 well plates to 20 μl of incubation buffer (50 mM Tris pH 7.8, 8.3 mM MgCl2, 1.7 mM EGTA). 10 μl of hPDE2A enzyme in incubation buffer was added and the reaction was started by addition of 10 μl substrate to a final concentration of 10 μM cGMP and 0.01 μCi ^3H-cGMP. The reaction was incubated for 45 minutes at room temperature. […] After sedimentation of the beads during 30 minutes the radioactivity was measured in a Perkin Elmer Topcount scintillation counter and results were expressed as cpm. For blanc values the enzyme was omitted from the reaction and replaced by incubation buffer. Control values were obtained by addition of a final concentration of 1% DMSO instead of compound.

PDE2A = target: T2, PDE2A (Rattus norvegicus, UniProt Q01062); assay: PDE2 occupancy by ex-vivo autoradiography with [3H]B-17a; type: in vivo; settings: for receptor occupancy at 10 mg/kg: rat
T2 construct: from tissue; host or cells: rat brain striatal sections (ex vivo)
T2 sequence (Q01062 1-928): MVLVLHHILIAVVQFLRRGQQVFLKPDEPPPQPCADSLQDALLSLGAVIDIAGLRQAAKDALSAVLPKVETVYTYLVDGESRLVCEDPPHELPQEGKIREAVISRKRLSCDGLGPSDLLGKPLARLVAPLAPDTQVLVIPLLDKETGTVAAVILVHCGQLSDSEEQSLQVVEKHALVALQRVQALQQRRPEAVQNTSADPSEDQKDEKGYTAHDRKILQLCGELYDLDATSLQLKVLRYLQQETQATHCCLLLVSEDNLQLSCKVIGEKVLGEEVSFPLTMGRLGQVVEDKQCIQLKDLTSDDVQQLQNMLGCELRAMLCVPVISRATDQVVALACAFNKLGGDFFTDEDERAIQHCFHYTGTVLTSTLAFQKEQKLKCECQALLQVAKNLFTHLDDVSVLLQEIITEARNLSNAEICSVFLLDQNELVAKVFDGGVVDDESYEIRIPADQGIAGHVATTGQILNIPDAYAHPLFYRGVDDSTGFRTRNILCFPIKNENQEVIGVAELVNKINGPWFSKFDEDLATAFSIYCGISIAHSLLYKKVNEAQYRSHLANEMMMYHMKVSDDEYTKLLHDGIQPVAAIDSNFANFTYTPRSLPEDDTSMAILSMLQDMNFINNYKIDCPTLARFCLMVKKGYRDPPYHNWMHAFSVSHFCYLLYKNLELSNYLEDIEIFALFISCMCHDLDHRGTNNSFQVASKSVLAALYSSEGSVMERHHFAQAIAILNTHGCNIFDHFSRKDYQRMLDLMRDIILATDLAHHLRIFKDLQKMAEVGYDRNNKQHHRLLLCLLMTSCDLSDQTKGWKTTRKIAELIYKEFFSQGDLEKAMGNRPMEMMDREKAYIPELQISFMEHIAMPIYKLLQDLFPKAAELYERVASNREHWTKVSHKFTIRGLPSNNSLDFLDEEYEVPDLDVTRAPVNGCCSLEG
Experimental: PDE2 Occupancy by Test Compounds Methods
Brains were immediately removed from the skull and rapidly frozen in dry-ice cooled 2-methylbutane (−40° C.).
After thawing, sections were dried under a cold stream of air and incubated for one minute with 30 nM [^3H]B-17a in Tris-HCl (50 mM, pH7.4) containing 0.3% BSA. Brain sections from drug-treated and vehicle-treated animals were incubated in parallel. […] After incubation, the excess of [^3H]B-17a was washed off in ice-cold buffer 2 times 10 minutes, followed by a quick dip in distilled water. The sections were then dried under a stream of cold air.
Brain sections were loaded in a β-imager (Biospace, Paris) for 4 h and radioactivity emerging from delineated brain area was quantified using the Beta vision program (Biospace, Paris). Specific binding was determined as the difference between total binding in the striatum and non-specific binding in the cerebellum. Percentage receptor occupancy of the drug administered to the animal corresponded to 100% minus the percentage receptor labeled in the treated animal. For the determination of ED50-values, the percentage of receptor occupancy was plotted against dose and the sigmoidal log dose-effect curve of best fit was calculated by non-linear regression analysis, using the GraphPad Prism program.

hPDE3B = assay: In vitro assay PDE3 (SPA, 3H-cAMP); type: biochemical, human; set-up: hPDE3B Emax: unit not given here; settings: for hPDE3B pIC50: 0.4 μM cAMP substrate
hPDE10A2 = hPDE10A2 (Homo sapiens, UniProt Q9Y233); assay: biochemical; settings: for IC50: 60 nM cAMP substrate, read-out: hPDE10A2 pIC50 (converted); for Emax: read-out: hPDE10A2 Emax
Experimental: Rat recombinant PDE10A (rPDE10A2) was expressed in Sf9 cells using a recombinant rPDE10A baculovirus construct. Cells were harvested after 48 h of infection and the rPDE10A protein was purified by metal chelate chromatography on Ni-sepharose 6FF. Tested compounds were dissolved and diluted in 100% DMSO to a concentration 100 fold of the final concentration in the assay. Human recombinant PDE10A […] was expressed in Sf9 cells using a recombinant hPDE10A baculovirus that was made and amplified in house. Cells were harvested after 72 h of infection and the hPDE10A protein was purified by metal chelate chromatography on Ni-sepharose. Compound dilutions (0.4 μl) were added in 384 well plates to 20 μl of incubation buffer (50 mM Tris pH 7.8, 8.3 mM MgCl2, 1.7 mM EGTA). […] of rPDE10A or hPDE10A enzyme in incubation buffer was added and the reaction was started by addition of 10 μl substrate to a final concentration of 60 nM cAMP and 0.008 μCi ^3H-cAMP. The reaction was incubated for 60 minutes at room temperature. […] After sedimentation of the beads during 30 minutes the radioactivity was measured in a Perkin Elmer Topcount scintillation counter and results were expressed as cpm. For blanc values the enzyme was omitted from the reaction and replaced by incubation buffer. Control values were obtained by addition of a final concentration of 1% DMSO instead of compound.

T1 sequence (O00408 whole entry): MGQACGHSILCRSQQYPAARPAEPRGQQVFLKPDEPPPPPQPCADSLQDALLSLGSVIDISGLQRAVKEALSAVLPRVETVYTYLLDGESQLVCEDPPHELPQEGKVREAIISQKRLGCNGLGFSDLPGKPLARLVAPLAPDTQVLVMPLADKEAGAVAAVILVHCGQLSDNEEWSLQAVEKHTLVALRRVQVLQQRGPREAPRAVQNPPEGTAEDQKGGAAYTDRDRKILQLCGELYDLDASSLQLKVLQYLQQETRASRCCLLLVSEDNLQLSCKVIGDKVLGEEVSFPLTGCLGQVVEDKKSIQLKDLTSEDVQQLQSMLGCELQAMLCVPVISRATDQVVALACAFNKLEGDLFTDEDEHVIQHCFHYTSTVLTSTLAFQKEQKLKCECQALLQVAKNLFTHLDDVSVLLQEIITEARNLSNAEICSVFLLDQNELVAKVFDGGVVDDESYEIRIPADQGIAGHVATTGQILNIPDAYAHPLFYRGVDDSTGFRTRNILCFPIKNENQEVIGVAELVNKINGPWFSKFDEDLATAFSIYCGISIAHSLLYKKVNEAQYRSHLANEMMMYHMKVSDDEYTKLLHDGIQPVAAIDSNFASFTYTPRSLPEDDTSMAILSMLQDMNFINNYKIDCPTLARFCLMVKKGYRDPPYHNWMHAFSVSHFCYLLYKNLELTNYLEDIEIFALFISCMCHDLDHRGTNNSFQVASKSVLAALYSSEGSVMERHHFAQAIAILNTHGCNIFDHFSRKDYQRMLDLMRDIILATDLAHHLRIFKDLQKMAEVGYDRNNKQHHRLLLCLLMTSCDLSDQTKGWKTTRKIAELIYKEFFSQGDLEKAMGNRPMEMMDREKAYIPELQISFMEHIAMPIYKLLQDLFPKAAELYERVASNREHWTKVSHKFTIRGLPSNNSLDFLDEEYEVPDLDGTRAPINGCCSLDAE
Sequence of hPDE10A2 (Q9Y233 267-1055): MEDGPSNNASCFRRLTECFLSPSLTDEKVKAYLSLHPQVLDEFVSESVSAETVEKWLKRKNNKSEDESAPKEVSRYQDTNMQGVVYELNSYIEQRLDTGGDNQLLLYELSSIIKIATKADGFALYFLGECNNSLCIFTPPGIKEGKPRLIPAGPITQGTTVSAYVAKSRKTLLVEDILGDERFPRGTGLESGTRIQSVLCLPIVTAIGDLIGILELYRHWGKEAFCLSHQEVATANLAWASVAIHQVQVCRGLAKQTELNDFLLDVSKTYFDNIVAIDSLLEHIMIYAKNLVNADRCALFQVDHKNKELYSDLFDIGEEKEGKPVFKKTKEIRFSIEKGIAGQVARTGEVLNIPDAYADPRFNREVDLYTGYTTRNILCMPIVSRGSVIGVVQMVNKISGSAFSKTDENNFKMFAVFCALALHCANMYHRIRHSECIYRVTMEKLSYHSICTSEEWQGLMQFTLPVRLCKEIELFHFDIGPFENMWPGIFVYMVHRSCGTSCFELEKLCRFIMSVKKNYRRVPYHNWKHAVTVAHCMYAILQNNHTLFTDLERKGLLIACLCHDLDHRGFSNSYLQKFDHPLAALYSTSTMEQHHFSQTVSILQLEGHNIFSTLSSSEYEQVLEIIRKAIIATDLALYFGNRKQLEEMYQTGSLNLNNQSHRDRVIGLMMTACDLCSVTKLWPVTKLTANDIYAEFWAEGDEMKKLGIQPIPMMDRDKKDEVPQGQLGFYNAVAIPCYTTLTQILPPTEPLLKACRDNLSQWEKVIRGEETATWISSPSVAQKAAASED

In the case of `C[C@@H]1CCN(c2nccc3occc23)C[C@H]1c1cc(C(F)F)nc2ncnn12` [Compound 13], the IC50 (hPDE2A) is reported as 0.0158 µM, the Emax (hPDE2A) is reported as 98% and the “PDE2 occupancy at 10 mg/kg” value (PDE2A; route SC (subcutaneous), 10 mg/kg, male Wistar rats, striatum, percentage occupancy) is reported as 41 and 67. For the same molecule, the “hPDE3B Emax” value (hPDE3B) was 54, the “hPDE3B pIC50” value (hPDE3B) was 5.07 and the melting point was 182.59 °C. The IC50 (hPDE10A2) was 0.457 µM and the Emax (hPDE10A2) was 91%.
Work on `C[C@@H]1CCN(c2nccc3cccc(F)c23)C[C@H]1c1cc(C(F)F)nc2ncnn12` [Compound 20] yielded an IC50 (hPDE2A) of 0.0372 µM, an Emax (hPDE2A) of 100% and a receptor occupancy at 10 mg/kg (PDE2A; po, read-out: PDE2 occupancy at 10 mg/kg, route PO (oral), 10 mg/kg, male Wistar rats, striatum, percentage occupancy) of 18%. The “hPDE3B Emax” value (hPDE3B) was 81, the “hPDE3B pIC50” value (hPDE3B) was 5.41 and the melting point was 179.73 °C. The IC50 (hPDE10A2) was 0.269 µM and the Emax (hPDE10A2) was 97%.
For `C[C@@H]1CCN(c2nccc3cccnc23)C[C@H]1c1cc(C(F)F)nc2ncnn12` [Compound 23], the IC50 (hPDE2A) was 0.0741 µM, the Emax (hPDE2A) was 95% and the receptor occupancy at 10 mg/kg (PDE2A; route SC (subcutaneous), 10 mg/kg, male Wistar rats, striatum, percentage occupancy, read-out: PDE2 occupancy at 10 mg/kg) was 5%. For the same molecule, the “hPDE3B Emax” value (hPDE3B) was 54, the “hPDE3B pIC50” value (hPDE3B) was <5 and the melting point was 111.34 °C. The IC50 (hPDE10A2) was 0.661 µM and the Emax (hPDE10A2) was 93%.
